Data reported in patent US20140343000A1 (priority 2011, published 2014).

tested on: recombinant NL4-3 virus (Renilla luciferase in nef, Gag P373S; NLRluc) in MT-2 cells; experiment: whole plant or invertebrate; type: cell-based, HIV; settings: Renilla, NL43, luciferase activity in cells infected for 4-5 days with NLRluc recombinants, serial dilutions of inhibitor; class symbols (key in Table 1); read-out: EC50
In short: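 Inhibitor potency against the reporter virus comes from reduced luciferase activity in infected MT-2 cells exposed to a dilution series of compound over 4-5 days.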

How did the EC50 turn out when `C=C(C)[C@@H]1CC[C@]2(NCCN3CCOCC3)CC[C@]3(C)[C@H](CC[C@@H]4[C@@]5(C)CC=C(c6ccc(C(=O)O)cc6)C(C)(C)[C@@H]5CC[C@]43C)[C@@H]12` [Example 159, 4-((1R,3aS,5aR,5bR,7aR,11aS,11bR,13aR,13bR)-5a,5b,8,8,11a-pentamethyl-3a-(2-morpholinoethylamino)-1-(prop-1-en-2-yl)-2,3,3a,4,5,5a,5b,6,7,7a,8,11,11a,11b,12,13,13a,13b-octadecahydro-1H-cyclopenta[a]chrysen-9-yl)benzoic acid] was run?
Its EC50 is < 100 nM.

For `C=C(C)[C@@H]1CC[C@]2(NC(=O)CN3CCC(F)(F)C3)CC[C@]3(C)[C@H](CC[C@@H]4[C@@]5(C)CC=C(c6ccc(C(=O)O)cc6)C(C)(C)[C@@H]5CC[C@]43C)[C@@H]12` [Example 119, 4-((1R,3aS,5aR,5bR,7aR,11aS,11bR,13aR,13bR)-3a-(2-(3,3-difluoropyrrolidin-1-yl)acetamido)-5a,5b,8,8,11a-pentamethyl-1-(prop-1-en-2-yl)-2,3,3a,4,5,5a,5b,6,7,7a,8,11,11a,11b,12,13,13a,13b-octadecahydro-1H-cyclopenta[a]chrysen-9-yl)benzoic acid], which EC50 is on record?
Its EC50 is < 100 nM.

For `C=C(C)[C@@H]1CC[C@]2(NC(=O)CCc3nccn3C)CC[C@]3(C)[C@H](CC[C@@H]4[C@@]5(C)CC=C(c6ccc(C(=O)O)cc6)C(C)(C)[C@@H]5CC[C@]43C)[C@@H]12` [Example 75, 4-((1R,3aS,5aR,5bR,7aR,11aS,11bR,13aR,13bR)-5a,5b,8,8,11a-pentamethyl-3a-(3-(1-methyl-1H-imidazol-2-yl)propanamido)-1-(prop-1-en-2-yl)-2,3,3a,4,5,5a,5b,6,7,7a,8,11,11a,11b,12,13,13a,13b-octadecahydro-1H-cyclopenta[a]chrysen-9-yl)benzoic acid], which EC50 is on record?
Its EC50 is < 100 nM.

Which EC50 does the source give for `C=C(C)[C@@H]1CC[C@]2(NCCN3CCN(C(=O)C4(C)CC4)CC3)CC[C@]3(C)[C@H](CC[C@@H]4[C@@]5(C)CC=C(c6ccc(C(=O)O)cc6)C(C)(C)[C@@H]5CC[C@]43C)[C@@H]12` [Example B63, 4-((1R,3aS,5aR,5bR,7aR,11aS,11bR,13aR,13bR)-5a,5b,8,8,11a-pentamethyl-3a-((2-(4-(1-methylcyclopropanecarbonyl)piperazin-1-yl)ethyl)amino)-1-(prop-1-en-2-yl)-2,3,3a,4,5,5a,5b,6,7,7a,8,11,11a,11b,12,13,13a,13b-octadecahydro-1H-cyclopenta[a]chrysen-9-yl)benzoic acid] here?
Its EC50 is < 100 nM.

`C=C(C)[C@@H]1CC[C@]2(NC(=O)CN(C)CCOC)CC[C@]3(C)[C@H](CC[C@@H]4[C@@]5(C)CC=C(c6ccc(C(=O)O)cc6)C(C)(C)[C@@H]5CC[C@]43C)[C@@H]12` [Example 86, 4-((1R,3aS,5aR,5bR,7aR,11aS,11bR,13aR,13bR)-3a-(2-((2-methoxyethyl)(methyl)amino)acetamido)-5a,5b,8,8,11a-pentamethyl-1-(prop-1-en-2-yl)-2,3,3a,4,5,5a,5b,6,7,7a,8,11,11a,11b,12,13,13a,13b-octadecahydro-1H-cyclopenta[a]chrysen-9-yl)benzoic acid] was tested. Which EC50 did it give?
The EC50 was < 100 nM.

How did the EC50 turn out when `C=C(C)[C@@H]1CC[C@]2(NCCN3CCN(C(=O)C4CCCC4)CC3)CC[C@]3(C)[C@H](CC[C@@H]4[C@@]5(C)CC=C(c6ccc(C(=O)O)cc6)C(C)(C)[C@@H]5CC[C@]43C)[C@@H]12` [Example B55, 4-((1R,3aS,5aR,5bR,7aR,11aS,11bR,13aR,13bR)-3a-((2-(4-(cyclopentanecarbonyl)piperazin-1-yl)ethyl)amino)-5a,5b,8,8,11a-pentamethyl-1-(prop-1-en-2-yl)-2,3,3a,4,5,5a,5b,6,7,7a,8,11,11a,11b,12,13,13a,13b-octadecahydro-1H-cyclopenta[a]chrysen-9-yl)benzoic acid] was run?
The EC50 was < 100 nM.

How did the EC50 turn out when `C=C(C)[C@@H]1CC[C@]2(NC(=O)CN(C(C)C)C(C)C)CC[C@]3(C)[C@H](CC[C@@H]4[C@@]5(C)CC=C(c6ccc(C(=O)O)cc6)C(C)(C)[C@@H]5CC[C@]43C)[C@@H]12` [Example 123, 4-((1R,3aS,5aR,5bR,7aR,11aS,11bR,13aR,13bR)-3a-(2-(diisopropylamino)acetamido)-5a,5b,8,8,11a-pentamethyl-1-(prop-1-en-2-yl)-2,3,3a,4,5,5a,5b,6,7,7a,8,11,11a,11b,12,13,13a,13b-octadecahydro-1H-cyclopenta[a]chrysen-9-yl)benzoic acid] was run?
The EC50 was < 100 nM.

`C=C(C)[C@@H]1CC[C@]2(NCCN3CCN(C(=O)CC4CCCC4)CC3)CC[C@]3(C)[C@H](CC[C@@H]4[C@@]5(C)CC=C(c6ccc(C(=O)O)cc6)C(C)(C)[C@@H]5CC[C@]43C)[C@@H]12` [Example B56, 4-((1R,3aS,5aR,5bR,7aR,11aS,11bR,13aR,13bR)-3a-((2-(4-(2-cyclopentylacetyl)piperazin-1-yl)ethyl)amino)-5a,5b,8,8,11a-pentamethyl-1-(prop-1-en-2-yl)-2,3,3a,4,5,5a,5b,6,7,7a,8,11,11a,11b,12,13,13a,13b-octadecahydro-1H-cyclopenta[a]chrysen-9-yl)benzoic acid] was tested. Which EC50 did it give?
Its EC50 is < 100 nM.

`C=C(C)[C@@H]1CC[C@]2(N(CCN3CCS(=O)(=O)CC3)C(C)=O)CC[C@]3(C)[C@H](CC[C@@H]4[C@@]5(C)CC=C(c6ccc(C(=O)O)cc6)C(C)(C)[C@@H]5CC[C@]43C)[C@@H]12` [Example 178, 4-((1R,3aS,5aR,5bR,7aR,11aS,11bR,13aR,13bR)-3a-(acetyl(2-(1,1-dioxido-4-thiomorpholinyl)ethyl)amino)-1-isopropenyl-5a,5b,8,8,11a-pentamethyl-2,3,3a,4,5,5a,5b,6,7,7a,8,11,11a,11b,12,13,13a,13b-octadecahydro-1H-cyclopenta[a]chrysen-9-yl)benzoic acid] was tested. Which EC50 did it give?
Its EC50 is < 100 nM.

`C=C(C)[C@@H]1CC[C@]2(NCCN3CCS(=O)(=O)CC3)CC[C@]3(C)[C@H](CC[C@@H]4[C@@]5(C)CC=C(c6ccc(C(=O)O)cc6)C(C)(C)[C@@H]5CC[C@]43C)[C@@H]12` [Example 137, 4-((1R,3aS,5aR,5bR,7aR,11aS,11bR,13aR,13bR)-3a-((2-(1,1-dioxido-4-thiomorpholinyl)ethyl)amino)-1-isopropenyl-5a,5b,8,8,11a-pentamethyl-2,3,3a,4,5,5a,5b,6,7,7a,8,11,11a,11b,12,13,13a,13b-octadecahydro-1H-cyclopenta[a]chrysen-9-yl)benzoic acid] was tested. Which EC50 did it give?
The EC50 was < 100 nM.

same assay, conditions: Renilla, NL43, luciferase activity in cells infected for 4-5 days with NLRluc recombinants, serial dilutions of inhibitor; numeric values; read-out: EC50

With `C=C(C)[C@@H]1CC[C@]2(NC(=O)NCCN3CCCC3=O)CC[C@]3(C)[C@H](CC[C@@H]4[C@@]5(C)CC=C(c6ccc(C(=O)O)cc6)C(C)(C)[C@@H]5CC[C@]43C)[C@@H]12` [Example 28, 4-((1R,3aS,5aR,5bR,7aR,11aS,11bR,13aR,13bR)-5a,5b,8,8,11a-pentamethyl-3a-(3-(2-(2-oxopyrrolidin-1-yl)ethyl)ureido)-1-(prop-1-en-2-yl)-2,3,3a,4,5,5a,5b,6,7,7a,8,11,11a,11b,12,13,13a,13b-octadecahydro-1H-cyclopenta[a]chrysen-9-yl)benzoic acid] as the compound, how does the EC50 read?
The EC50 was 4 nM.
